Assays:
[1] = Hygroscopicity: moisture sorption isotherms on a dynamic moisture balance; assay type: physicochemical
Protocol: The moisture sorption isotherms of Form V was determined at 25° C. using a dynamic moisture balance (MB-300G) (VTI Corp., Hialeah, Fla.) calibrated for weight with 10 to 100 mg standard weights and for moisture with polyvinylpyrrolidone. The value for the weight equilibrium criterion for each relative humidity is calculated based on the weight of the sample and the drift in the balance (0.001 mg). A value of 8 min. was used for the time criteria. The moisture sorption profile of the dihydrate (Form V) (Adsorption 1/Desorption 1) after drying in vacuo for 2 h is shown in FIG. 5. Form V dehydrates on drying to a different crystal form as shown by vacuum X-ray powder diffraction in FIG. 6, losing approximately 8% by weight. For purposes of this specification, this dehydrated dihydrate is identified as […]. This form appears to be the same as that obtained by heating the sample at 125° C., but different from that obtained on drying at 60° C. in air for 24 h. The latter form is identified as Form III. The Form II (dehydrated dihydrate) is hygroscopic converting to a hemihydrate between ca. 10-40% RH and a tetrahydrate at 90% RH (FIG. 5 and FIG. 7). However, the XRPD pattern for the hemihydrate is the same as that of the dehydrated dihydrate (Form II). For purposes of this specification this hemihydrate and tetrahydrate are identified as Form II and Form IV, respectively.
Form I is non-hygroscopic with a maximum weight change of ca. 1% at 90% RH. On desorption, the tetrahydrate (Form IV) remains unchanged between 90-60% RH but converts to dihydrate (Form V) at 45-15% RH (FIG. 5 and FIG. 8).
Since the X-ray diffraction patterns of the dehydrated dihydrate and the hemihydrate are the same, we conclude that the hemihydrate is isostructural with the dehydrated dihydrate form obtained on drying in vacuo. […]

[2] = Thermal stability: heating the sample for 24 h at 60° C. in air; assay type: physicochemical
Protocol: The thermal stability of the Form V was evaluated by heating the sample for 24 h at 60° C. in air. The dihydrate (Form V) readily dehydrates within 10 min of heating losing approximately 8.5% by weight (corresponding to ca. 2 moles of water per mole base).

Row | Compound | Hygroscopicity (in words) ([1]; 25° C., dynamic moisture balance) | maximum weight change ([1]; at 90% RH, 25° C.) | weight lost on drying (dehydration to a different crystal form) ([1]; drying in vacuo for 2 h) | time of heating until dehydration [2] [min] | weight lost on heating (dehydration) [2]
1 | O=C(NC1CC1)c1cn(-c2cccc(C#Cc3ccc[n+]([O-])c3)c2)c2ncccc2c1=O [Form I, N-Cyclopropyl-1-{3-[(1-oxidopryidin-3-yl)ethynyl]phenyl}-4-oxo-1,4-dihydro-1,8-naphthyridine-3-carboxyamide] | non-hygroscopic | ca. 1% |  |  | 
2 | Compound IX Dihydrate [Dihydrate (Form V)] |  |  | approximately 8 % by weight | ≤ 10 | approximately 8.5 % by weight
